#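 Values below derive from 48-hour exposures of cells grown in 96-well plates, with endpoints linearly interpolated between the two concentrations bracketing the appropriate inhibition level. Abbreviation: GI50, concentration required for 50% inhibition of growth. TGI marks complete inhibition of growth.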
# Tests used:
# Test in all cases: NCI anticancer screen, dose series, 48 h
# CCRF-CEM leukemia = tested on: CCRF-CEM leukemia
# SK-MEL-28 melanoma = tested on: SK-MEL-28 melanoma
# K-562 leukemia = tested on: K-562 leukemia
# A498 renal = tested on: A498 renal
# 786-0 renal = tested on: 786-0 renal
# RPMI-8226 leukemia = tested on: RPMI-8226 leukemia
# OVCAR-4 ovarian = tested on: OVCAR-4 ovarian
# SK-MEL-2 melanoma = tested on: SK-MEL-2 melanoma
# A549 NSCLC = tested on: A549 NSCLC
# M14 melanoma = tested on: M14 melanoma
# NCI-H23 lung = tested on: NCI-H23 lung
# OVCAR-5 ovarian = tested on: OVCAR-5 ovarian
# UACC-257 melanoma = tested on: UACC-257 melanoma
# OVCAR-8 ovarian = tested on: OVCAR-8 ovarian
# IGROV1 ovarian = tested on: IGROV1 ovarian
# MALME-3M melanoma = tested on: MALME-3M melanoma
# TK-10 renal = tested on: TK-10 renal
# MDA-MB-435 = tested on: MDA-MB-435
# ACHN renal = tested on: ACHN renal
# NCI-H522 lung = tested on: NCI-H522 lung
# HL-60(TB) leukemia = tested on: HL-60(TB) leukemia
# MDA-MB-231 breast = tested on: MDA-MB-231 breast
# SNB-19 CNS = tested on: SNB-19 CNS
# NCI-H460 lung = tested on: NCI-H460 lung
# HCC-2998 colon = tested on: HCC-2998 colon
# SF-295 CNS = tested on: SF-295 CNS
# HOP-92 NSCLC = tested on: HOP-92 NSCLC
# T-47D breast = tested on: T-47D breast
# HS 578T breast = tested on: HS 578T breast
# DU-145 prostate = tested on: DU-145 prostate
# MOLT-4 leukemia = tested on: MOLT-4 leukemia
# EKVX NSCLC = tested on: EKVX NSCLC
# COLO 205 colon = tested on: COLO 205 colon
# HCT-15 colon = tested on: HCT-15 colon
# CAKI-1 renal = tested on: CAKI-1 renal
# UO-31 renal = tested on: UO-31 renal
# SF-268 CNS = tested on: SF-268 CNS
# MDA-N = tested on: MDA-N
# SN12C renal = tested on: SN12C renal
# HCT-116 colon = tested on: HCT-116 colon
# SK-OV-3 ovarian = tested on: SK-OV-3 ovarian
# NCI/ADR-RES ovarian = tested on: NCI/ADR-RES ovarian
# KM12 colon = tested on: KM12 colon
# SF-539 CNS = tested on: SF-539 CNS
# U251 CNS = tested on: U251 CNS
# LOX IMVI melanoma = tested on: LOX IMVI melanoma
# UACC-62 melanoma = tested on: UACC-62 melanoma
# SNB-75 CNS = tested on: SNB-75 CNS
# OVCAR-3 ovarian = tested on: OVCAR-3 ovarian
# MCF7 breast = tested on: MCF7 breast
# SW-620 colon = tested on: SW-620 colon
# SR leukemia = tested on: SR leukemia
# BT-549 breast = tested on: BT-549 breast
# SK-MEL-5 melanoma = tested on: SK-MEL-5 melanoma
# PC-3 prostate = tested on: PC-3 prostate
# HOP-62 NSCLC = tested on: HOP-62 NSCLC
# HT29 colon = tested on: HT29 colon
# RXF 393 renal = tested on: RXF 393 renal
# NCI-H226 lung = tested on: NCI-H226 lung
smiles,measurement,setting,value
COC(=O)CCCC(=O)NC1=C(Nc2ccccc2)C(=O)c2ccccc2C1=O,TGI,CCRF-CEM leukemia,76.2 µM
same,TGI,SK-MEL-28 melanoma,30.3 µM
same,TGI,K-562 leukemia,47.3 µM
same,TGI,A498 renal,32.5 µM
same,TGI,786-0 renal,33.5 µM
same,TGI,RPMI-8226 leukemia,59.7 µM
same,TGI,OVCAR-4 ovarian,37.1 µM
same,TGI,SK-MEL-2 melanoma,34.2 µM
same,TGI,A549 NSCLC,36.8 µM
same,TGI,M14 melanoma,29.6 µM
same,TGI,NCI-H23 lung,29.6 µM
same,TGI,OVCAR-5 ovarian,30.7 µM
same,TGI,UACC-257 melanoma,26.4 µM
same,TGI,OVCAR-8 ovarian,> 100 µM
same,TGI,IGROV1 ovarian,30.2 µM
same,TGI,MALME-3M melanoma,12.9 µM
same,TGI,TK-10 renal,49.7 µM
same,TGI,MDA-MB-435,17.4 µM
same,TGI,ACHN renal,62.2 µM
same,TGI,NCI-H522 lung,35.3 µM
same,TGI,HL-60(TB) leukemia,49.7 µM
same,TGI,MDA-MB-231 breast,43.8 µM
same,TGI,SNB-19 CNS,34.6 µM
same,TGI,NCI-H460 lung,33.7 µM
same,TGI,HCC-2998 colon,29.5 µM
same,TGI,SF-295 CNS,33 µM
same,TGI,HOP-92 NSCLC,73.6 µM
same,TGI,T-47D breast,64.8 µM
same,TGI,HS 578T breast,84.4 µM
same,TGI,DU-145 prostate,29.4 µM
same,TGI,MOLT-4 leukemia,45.5 µM
same,TGI,EKVX NSCLC,49.7 µM
same,TGI,COLO 205 colon,35.7 µM
same,TGI,HCT-15 colon,41.1 µM
same,TGI,CAKI-1 renal,44 µM
same,TGI,UO-31 renal,46.1 µM
same,TGI,SF-268 CNS,96.3 µM
same,TGI,MDA-N,15 µM
same,TGI,SN12C renal,45.1 µM
same,TGI,HCT-116 colon,32.7 µM
same,TGI,SK-OV-3 ovarian,53.4 µM
same,TGI,NCI/ADR-RES ovarian,56 µM
same,TGI,KM12 colon,20.2 µM
same,TGI,SF-539 CNS,35 µM
same,TGI,U251 CNS,29.3 µM
same,TGI,LOX IMVI melanoma,41.6 µM
same,TGI,UACC-62 melanoma,11.9 µM
same,TGI,SNB-75 CNS,33.8 µM
same,TGI,OVCAR-3 ovarian,38 µM
same,TGI,MCF7 breast,32.1 µM
same,TGI,SW-620 colon,52.4 µM
same,TGI,SR leukemia,> 100 µM
COc1ccc2[nH]c(-c3ccccc3)c(C=C(C#N)C#N)c2c1,GI50,CCRF-CEM leukemia,3.42 µM
same,TGI,CCRF-CEM leukemia,> 100 µM
same,GI50,SK-MEL-28 melanoma,4.44 µM
same,TGI,SK-MEL-28 melanoma,> 100 µM
same,GI50,K-562 leukemia,2.07 µM
same,TGI,K-562 leukemia,> 100 µM
same,GI50,A498 renal,2.01 µM
same,TGI,A498 renal,6.22 µM
same,GI50,786-0 renal,6.63 µM
same,TGI,786-0 renal,> 100 µM
same,GI50,RPMI-8226 leukemia,2.62 µM
same,TGI,RPMI-8226 leukemia,20.3 µM
same,GI50,OVCAR-4 ovarian,5.36 µM
same,TGI,OVCAR-4 ovarian,> 100 µM
same,GI50,SK-MEL-2 melanoma,5.87 µM
same,TGI,SK-MEL-2 melanoma,> 100 µM
same,GI50,A549 NSCLC,6.97 µM
same,TGI,A549 NSCLC,> 100 µM
same,GI50,BT-549 breast,2.17 µM
same,TGI,BT-549 breast,> 100 µM
same,GI50,M14 melanoma,2.29 µM
same,TGI,M14 melanoma,44.5 µM
same,GI50,NCI-H23 lung,4.08 µM
same,TGI,NCI-H23 lung,> 100 µM
same,GI50,OVCAR-5 ovarian,44.2 µM
same,TGI,OVCAR-5 ovarian,> 100 µM
same,GI50,SK-MEL-5 melanoma,2.87 µM
same,TGI,SK-MEL-5 melanoma,> 100 µM
same,GI50,UACC-257 melanoma,30 µM
same,TGI,UACC-257 melanoma,> 100 µM
same,GI50,PC-3 prostate,5.37 µM
same,TGI,PC-3 prostate,> 100 µM
same,GI50,OVCAR-8 ovarian,7.71 µM
same,TGI,OVCAR-8 ovarian,> 100 µM
same,GI50,IGROV1 ovarian,8.35 µM
same,TGI,IGROV1 ovarian,> 100 µM
same,GI50,MALME-3M melanoma,4.41 µM
same,TGI,MALME-3M melanoma,> 100 µM
same,GI50,TK-10 renal,5.07 µM
same,TGI,TK-10 renal,> 100 µM
same,GI50,MDA-MB-435,0.607 µM
same,TGI,MDA-MB-435,4.68 µM
same,GI50,ACHN renal,7.41 µM
same,TGI,ACHN renal,> 100 µM
same,GI50,NCI-H522 lung,4.57 µM
same,TGI,NCI-H522 lung,> 100 µM
same,GI50,HL-60(TB) leukemia,2.5 µM
same,TGI,HL-60(TB) leukemia,13.2 µM
same,GI50,MDA-MB-231 breast,3.8 µM
same,TGI,MDA-MB-231 breast,> 100 µM
same,GI50,SNB-19 CNS,6.04 µM
same,TGI,SNB-19 CNS,> 100 µM
same,GI50,NCI-H460 lung,3.56 µM
same,TGI,NCI-H460 lung,> 100 µM
same,GI50,HCC-2998 colon,6.08 µM
same,TGI,HCC-2998 colon,> 100 µM
same,GI50,SF-295 CNS,4.15 µM
same,TGI,SF-295 CNS,> 100 µM
same,GI50,HOP-62 NSCLC,5.31 µM
same,TGI,HOP-62 NSCLC,36.1 µM
same,GI50,HOP-92 NSCLC,2.4 µM
same,TGI,HOP-92 NSCLC,36.4 µM
same,GI50,T-47D breast,2.29 µM
same,TGI,T-47D breast,9.14 µM
same,GI50,HS 578T breast,2.35 µM
same,TGI,HS 578T breast,25.4 µM
same,GI50,DU-145 prostate,6.52 µM
same,TGI,DU-145 prostate,> 100 µM
same,GI50,MOLT-4 leukemia,3.74 µM
same,TGI,MOLT-4 leukemia,> 100 µM
same,GI50,EKVX NSCLC,4.05 µM
same,TGI,EKVX NSCLC,> 100 µM
same,GI50,COLO 205 colon,2.11 µM
same,TGI,COLO 205 colon,6.83 µM
same,GI50,HCT-15 colon,3.23 µM
same,TGI,HCT-15 colon,> 100 µM
same,GI50,CAKI-1 renal,4.13 µM
same,TGI,CAKI-1 renal,> 100 µM
same,GI50,UO-31 renal,6.43 µM
same,TGI,UO-31 renal,> 100 µM
same,GI50,SF-268 CNS,8.27 µM
same,TGI,SF-268 CNS,> 100 µM
same,GI50,SN12C renal,4.67 µM
same,TGI,SN12C renal,> 100 µM
same,GI50,HCT-116 colon,4.37 µM
same,TGI,HCT-116 colon,> 100 µM
same,GI50,SK-OV-3 ovarian,4.82 µM
same,TGI,SK-OV-3 ovarian,35.8 µM
same,GI50,NCI/ADR-RES ovarian,2.79 µM
same,TGI,NCI/ADR-RES ovarian,14 µM
same,GI50,HT29 colon,3.13 µM
same,TGI,HT29 colon,> 100 µM
same,GI50,RXF 393 renal,9.82 µM
same,TGI,RXF 393 renal,> 100 µM
same,GI50,KM12 colon,3.45 µM
same,TGI,KM12 colon,> 100 µM
same,GI50,SF-539 CNS,2.94 µM
same,TGI,SF-539 CNS,22 µM
same,GI50,U251 CNS,3.53 µM
same,TGI,U251 CNS,25.5 µM
same,GI50,LOX IMVI melanoma,4.88 µM
same,TGI,LOX IMVI melanoma,> 100 µM
same,GI50,UACC-62 melanoma,2.53 µM
same,TGI,UACC-62 melanoma,21.7 µM
same,GI50,SNB-75 CNS,2.76 µM
same,TGI,SNB-75 CNS,21.2 µM
same,GI50,NCI-H226 lung,3.51 µM
same,TGI,NCI-H226 lung,57.6 µM
same,GI50,OVCAR-3 ovarian,3.08 µM
same,TGI,OVCAR-3 ovarian,16 µM
same,GI50,MCF7 breast,2.16 µM
same,TGI,MCF7 breast,> 100 µM
same,GI50,SW-620 colon,3.62 µM
same,TGI,SW-620 colon,> 100 µM
same,GI50,SR leukemia,0.865 µM
same,TGI,SR leukemia,3.29 µM
